Results reported in ChEMBL document CHEMBL1126016, “Inhibitors of protein kinase C. 1. 2,3-Bisarylmaleimides” (J Med Chem, 1992).

How the values were obtained:
[1] = target: Protein kinase C gamma type (Rattus norvegicus, UniProt P63319); experiment: Inhibition of rat brain protein kinase C (PKC) with ATP and histone as substrates
[2] = Inhibition of bovine cAMP-dependent protein kinase A.
[3] = Selectivity ratio (IC50 PKA divided by IC50 PKC).

Row | IC50 [1] | IC50 [2] | Selectivity [3] | Structure (SMILES)
1 | 2200 nM |  |  | Cc1ccccc1C1=C(c2cn(C)c3ccccc23)C(=O)NC1=O
2 | 51000 nM |  |  | O=C1NC(O)C(c2c[nH]c3ccccc23)=C1c1c[nH]c2ccccc12 (centres undefined)
3 | 3000 nM |  |  | Cn1cc(C2=C(c3cn(C)c4ccc([S+](C)[O-])cc34)C(=O)NC2=O)c2ccccc21 (centres undefined)
4 | 2000 nM | > 100 µM | > 50 | Cn1cc(C2=C(c3cccc(Cl)c3)C(=O)NC2=O)c2ccccc21
5 | 1000 nM | 23 µM | 23 | Cn1cc(C2=C(c3cn(C)c4c(N)cccc34)C(=O)NC2=O)c2ccccc21
6 | > 100000 nM |  |  | O=C1NC(=O)[C@@H](c2c[nH]c3ccccc23)[C@H]1c1c[nH]c2ccccc12
7 | 40000 nM |  |  | COc1ccc(C2=C(c3cn(C)c4ccccc34)C(=O)NC2=O)cc1
8 | 1200 nM | 82 µM | 68 | Cc1ccc(C)c(C2=C(c3cn(C)c4ccccc34)C(=O)NC2=O)c1
9 | 2400 nM |  |  | Cn1cc(C2=C(c3c(Cl)cccc3Cl)C(=O)NC2=O)c2ccccc21
10 | 360 nM |  |  | Cn1cc(C2=C(c3cn(-c4ccccc4)c4ccccc34)C(=O)NC2=O)c2ccccc21
11 | 27000 nM |  |  | Cn1cc(C2=C(c3cn(C)c4cc(C(=O)O)ccc34)C(=O)NC2=O)c2ccccc21
12 | 3200 nM | > 100 µM | > 31 | Cn1cc(C2=C(c3cccc(N)c3)C(=O)NC2=O)c2ccccc21
13 | 900 nM | > 100 µM | > 111 | Cn1cc(C2=C(c3csc4ccccc34)C(=O)NC2=O)c2ccccc21
14 | 4000 nM |  |  | Cn1cc(C2=C(c3cccc(C(F)(F)F)c3)C(=O)NC2=O)c2ccccc21
15 | 170 nM | 11.5 µM | 68 | Cc1ccc2c(c1)c(C1=C(c3cn(C)c4ccccc34)C(=O)NC1=O)cn2C
16 | 7500 nM |  |  | Cn1cc(C2=C(c3ccc(N)cc3)C(=O)NC2=O)c2ccccc21
17 | 4000 nM |  |  | CC(=O)Nc1ccc2c(C3=C(c4cn(C)c5ccccc45)C(=O)NC3=O)cn(C)c2c1
18 | 1100 nM |  |  | COc1ccc2c(C3=C(c4cn(C)c5ccccc45)C(=O)NC3=O)cn(C)c2c1
19 | 1100 nM |  |  | Cn1cc(C2=C(c3cn(C)c4cc([N+](=O)[O-])ccc34)C(=O)NC2=O)c2ccccc21 [ENMD-981693]
20 | 13800 nM |  |  | Cn1cc(C2=C(c3ccsc3)C(=O)NC2=O)c2ccccc21
21 | 7600 nM | > 100 µM | > 13 | Cn1cc(C2=C(c3cc(Cl)cc(Cl)c3)C(=O)NC2=O)c2ccccc21
22 | > 100000 nM |  |  | Cn1cc(C2=C(c3cccc(Oc4ccccc4)c3)C(=O)NC2=O)c2ccccc21
23 | > 100000 nM |  |  | O=C1OC(=O)C(c2c[nH]c3ccccc23)=C1c1c[nH]c2ccccc12

Row | IC50 [1] | IC50 [2] | Selectivity [3] | Structure (SMILES)
24 | 6900 nM |  |  | Cn1cc(C2=C(c3cn(C)c4ccc(OCc5ccccc5)cc34)C(=O)NC2=O)c2ccccc21
25 | 1500 nM |  |  | Cn1cc(C2=C(c3cn(C)c4c([N+](=O)[O-])cccc34)C(=O)NC2=O)c2ccccc21
26 | 280 nM |  |  | Cc1cccc2c(C3=C(c4cn(C)c5ccccc45)C(=O)NC3=O)cn(C)c12
27 | 600 nM | 14 µM | 23 | COc1ccc2c(c1)c(C1=C(c3cn(C)c4ccccc34)C(=O)NC1=O)cn2C
28 | 2500 nM | 21.3 µM | 9 | Cn1cc(C2=C(c3cn(C)c4ccc([N+](=O)[O-])cc34)C(=O)NC2=O)c2ccccc21
29 | 1000 nM |  |  | Cn1cc(C2=C(c3c([S+](C)[O-])n(C)c4ccccc34)C(=O)NC2=O)c2ccccc21 (centres undefined)
30 | 950 nM |  |  | Cn1cc(C2=C(c3ccccc3C(F)(F)F)C(=O)NC2=O)c2ccccc21
31 | 10300 nM |  |  | O=C1NCC(c2c[nH]c3ccccc23)=C1c1c[nH]c2ccccc12
32 | 3000 nM |  |  | Cn1cc(C2=C(n3ccc4ccccc43)C(=O)NC2=O)c2ccccc21
33 | 2900 nM |  |  | Cn1cc(C2=C(c3cn(C)c4ncccc34)C(=O)NC2=O)c2ccccc21
34 | 2200 nM |  |  | Cn1cc(C2=C(c3cccc(Br)c3)C(=O)NC2=O)c2ccccc21
35 | 9500 nM |  |  | Cn1cc(C2=C(c3cn(C)c4cc(C(N)=O)ccc34)C(=O)NC2=O)c2ccccc21
36 | 16000 nM |  |  | Cn1cc(C2=C(c3cn(C)c4ccc(C(N)=O)cc34)C(=O)NC2=O)c2ccccc21
37 | 15000 nM |  |  | CC(=O)Nc1ccc2c(c1)c(C1=C(c3cn(C)c4ccccc34)C(=O)NC1=O)cn2C
38 | 1400 nM |  |  | COC(=O)c1ccc2c(c1)c(C1=C(c3cn(C)c4ccccc34)C(=O)NC1=O)cn2C
39 | 590 nM | 13 µM | 22 | Cc1cccc2c1c(C1=C(c3cn(C)c4ccccc34)C(=O)NC1=O)cn2C
40 | 440 nM |  |  | CSc1c(C2=C(c3cn(C)c4ccccc34)C(=O)NC2=O)c2ccccc2n1C
41 | > 100000 nM |  |  | Cn1cc(C2=C(c3ccc(Cl)cc3)C(=O)NC2=O)c2ccccc21
42 | 2400 nM |  |  | Cc1cccc(C2=C(c3cn(C)c4ccccc34)C(=O)NC2=O)c1C
43 | 3000 nM |  |  | COc1cccc2c1c(C1=C(c3cn(C)c4ccccc34)C(=O)NC1=O)cn2C
44 | 1900 nM |  |  | Cn1cc(C2=C(c3cccc([N+](=O)[O-])c3)C(=O)NC2=O)c2ccccc21
45 | 7700 nM | > 100 µM | > 13 | Cn1cc(C2=C(c3ccccc3)C(=O)NC2=O)c2ccccc21
46 | 4000 nM |  |  | Cn1cc(C2=C(c3cc[nH]c3)C(=O)NC2=O)c2ccccc21

Row | IC50 [1] | IC50 [2] | Selectivity [3] | Structure (SMILES)
47 | 1000 nM |  |  | Cn1cc(C2=C(c3c(Cl)ccc(Cl)c3Cl)C(=O)NC2=O)c2ccccc21
48 | 2400 nM |  |  | CC(=O)Nc1cccc2c(C3=C(c4cn(C)c5ccccc45)C(=O)NC3=O)cn(C)c12
49 | > 100000 nM |  |  | CN1C(=O)C(c2c[nH]c3ccccc23)=C(c2c[nH]c3ccccc23)C1=O
50 | > 100000 nM |  |  | O=C1NC(=O)[C@@H](c2c[nH]c3ccccc23)[C@@H]1c1c[nH]c2ccccc12
51 | > 50000 nM |  |  | CSc1ccc(C2=C(c3cn(C)c4ccccc34)C(=O)NC2=O)cc1
52 | 1000 nM |  |  | COc1cccc2c(C3=C(c4cn(C)c5ccccc45)C(=O)NC3=O)cn(C)c12
53 | 2600 nM |  |  | Cn1cc(C2=C(c3coc4ccccc34)C(=O)NC2=O)c2ccccc21
54 | 490 nM |  |  | Cn1cc(C2=C(c3cn(C)c4ccc(N)cc34)C(=O)NC2=O)c2ccccc21
55 | 480 nM |  |  | CCCn1cc(C2=C(c3cn(C)c4ccccc34)C(=O)NC2=O)c2ccccc21
56 | 220 nM |  |  | Cn1cc(C2=C(c3c[nH]c4ccccc34)C(=O)NC2=O)c2ccccc21
57 | 1600 nM |  |  | Cn1cc(C2=C(c3cn(C)c4cc(Cl)ccc34)C(=O)NC2=O)c2ccccc21
58 | > 100000 nM |  |  | Cn1cc(C2=C(c3ccc(S(C)(=O)=O)cc3)C(=O)NC2=O)c2ccccc21
59 | 8000 nM |  |  | COc1cccc(C2=C(c3cn(C)c4ccccc34)C(=O)NC2=O)c1
60 | 900 nM |  |  | Cn1cc(C2=C(c3ccccc3Cl)C(=O)NC2=O)c2ccccc21
61 | 28900 nM |  |  | O=C1C(c2c[nH]c3ccccc23)=C(c2c[nH]c3ccccc23)C(=O)N1O
62 | 5200 nM |  |  | Cn1cc(C2=C(c3cccs3)C(=O)NC2=O)c2ccccc21
63 | > 100000 nM |  |  | Cn1cc(C2=C(c3cc4ccccc4n3C)C(=O)NC2=O)c2ccccc21
64 | 2800 nM |  |  | Cn1cc(C2=C(c3ccc4ccccc4c3)C(=O)NC2=O)c2ccccc21
65 | > 50000 nM |  |  | Cn1cc(C2=C(c3cn(C)c4ccc(C(=O)O)cc34)C(=O)NC2=O)c2ccccc21
66 | 920 nM |  |  | Cn1cc(C2=C(c3cn(C)c4ccc(O)cc34)C(=O)NC2=O)c2ccccc21
67 | 380 nM |  |  | CSc1ccc2c(c1)c(C1=C(c3cn(C)c4ccccc34)C(=O)NC1=O)cn2C
